The target of assay [1] is T1, SMYD3 (Homo sapiens, UniProt Q9H7B4).
T1 construct: Full length recombinant SMYD3 was produced as previously reported; made in house; host or cells: E. coli BL21(DE3), in some cases Rosetta 2
T1 sequence (Q9H7B4 1-428): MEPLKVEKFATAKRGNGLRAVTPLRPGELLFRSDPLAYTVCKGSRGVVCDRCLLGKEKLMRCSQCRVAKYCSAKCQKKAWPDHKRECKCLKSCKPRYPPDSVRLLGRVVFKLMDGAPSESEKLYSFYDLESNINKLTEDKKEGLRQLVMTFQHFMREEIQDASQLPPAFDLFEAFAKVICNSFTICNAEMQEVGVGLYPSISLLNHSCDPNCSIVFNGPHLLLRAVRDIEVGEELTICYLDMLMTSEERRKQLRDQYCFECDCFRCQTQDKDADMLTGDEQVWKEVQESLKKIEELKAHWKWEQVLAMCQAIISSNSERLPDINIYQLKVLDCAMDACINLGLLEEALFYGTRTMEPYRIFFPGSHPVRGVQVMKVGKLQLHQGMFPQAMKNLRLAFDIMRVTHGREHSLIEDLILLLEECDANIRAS
The assay can be described thus: X-ray crystallography of SMYD3-fragment complexes (co-crystallization and soaking). Also on record: key to XRC: success or failure of crystallization in complex with SMYD3: The success (+) or failure (−) of crystallization in complex with SMYD3; The success (+) or failure (−) of crystallization in complex with SMYD3. From the text:
To identify binding sites and binding modes, the fragment hits (Table 1) were used in both co-crystallization and soaking experiments to obtain SMYD3-fragment co-crystals for X-ray crystallographic analyses. Diffraction data of 1.6–1.9 Å maximum resolution were obtained for four fragments (Fig. 5). For data collection and refinement statistics, see ESI, ^† Table S1.
Four new sites were thus identified.
Polder (F0–Fc) maps (Fig. 5, right) were generated to establish whether the observed electron density features were more likely to represent background noise or to belong to bound fragments. These omit maps are generated upon exclusion of the ligand and surrounding solvent from the model, which aids in visualizing weak densities. […] For fragments FL01507, FL08580 and FL08619, a comparison of the maps obtained after refinement with a bound fragment with maps obtained upon their replacement with either glycerol or acetate, which were present in the crystallization or cryo-protectant solutions, respectively, was required.
8 mg mL^−1 of SMYD3 in storage buffer (TBS buffer containing 2 mM DTT) was pre-incubated for 4–8 hours with 5 mM of a respective fragment hit compound and 10% (v/v) DMSO. Subsequently, 1 μL of this solution was mixed with an equal volume of reservoir solution (100 mM Tris, 100 mM magnesium acetate, 15–17% PEG3350, pH 8.25–8.75) to create the drops for co-crystallization by hanging drop vapour diffusion performed at 20 °C. Needle-like co-crystals nucleated within 12 h of equilibration against the reservoir. In addition, crystals of SMYD3 obtained in ligand-free crystallization setups were soaked with fragment solution prior to freezing. All crystals were cryo-protected via brief immersion in reservoir solution supplemented with 10% (v/v) glycerol.
Diffraction data were collected at beamline ID23-1 of the European Synchrotron Radiation Facility (ESRF, Grenoble, France). Data were indexed, auto-processed, scaled and merged on-site using the implemented data processing routines and software. Fragment-associated electron density features were identified upon data analysis with the Pipedream system (version 1.4.0, Global Phasing Ltd, Cambridge, United Kingdom), which includes data processing with autoPROC,[14] molecular replacement with Phaser,[15] structure refinement with BUSTER version 2.10.4 (Global Phasing Ltd, Cambridge, United Kingdom), automated ligand fitting with Rhofit (Global Phasing Ltd, Cambridge, United Kingdom) and BUSTER post-refinement.[16] Refinement was done with Phenix,[17] and model building with Coot.[18] (F0–Fc) difference density maps for models, from which ligand atoms and surrounding water molecules were removed, were generated using Phenix.

The target of assay [2] is T2, SMYD3 in complex with active site-specific tight-binding inhibitor EPZ031686 (Homo sapiens, UniProt Q9H7B4).
T2 construct: Full length recombinant SMYD3 was produced as previously reported; made in house; host or cells: E. coli BL21(DE3), in some cases Rosetta 2
T2 sequence (Q9H7B4 1-428): T1 sequence (Q9H7B4 1-428)
Briefly: GCI biosensor kinetic screening, active site blocked SMYD3 surface. From the text: A multiplexed screening assay was set up with three different SMYD3 surfaces and a blank reference surface in flow channels 1–4 (FC1–FC4) (Fig. 2a), as described previously.[5] The apo SMYD3 surface detected fragments interacting anywhere on SMYD3, while a SMYD3 surface blocked by active site-specific tight-binding inhibitor EPZ031686 detected compounds binding elsewhere. The denatured surface served as a reference, detecting fragments binding to unfolded proteins, also potentially present to a significant degree in the other two surfaces.
The library was screened using the approach described in Fig. 1, i.e. injection of fragments at 250 μM for increasing durations of time in a single cycle, using a flow rate of 100 μL min^−1, data acquisition set to 40 Hz and with an association time of 5 s and dissociation of 20 s. Each fragment was addressed to all four channels and interactions with the native and blocked surfaces compared. The experimental conditions were chosen to ensure that the assay could reliably characterize the fast and transient interactions expected from typical fragments.
The kinetic screening of 1056 compounds was successfully completed in 72 hours. […] Hits were identified with full kinetic information using dissociation phases.
All interaction kinetic experiments were conducted with a GCI–flow-based biosensor (WAVEdelta, Creoptix AG/Malvern Panalytical) and PCH WAVEchip (Creoptix AG/Malvern Panalytical) sensor chips. The sensor chips were conditioned using injections of borate buffer (10 mM sodium tetraborate pH 8.5, 1 M NaCl). The running buffer composition, if not otherwise stated, was TBS buffer (50 mM Tris, 150 mM NaCl, 0.5 mM TCEP, 0.05% Tween 20, 1% DMSO, pH 8). SMYD3 was diluted to the desired concentration in 10 mM bis-Tris (pH 7.0) and amine coupled to the sensor surface of the PCH sensor chip. The sensor chip was functionalized at 25 °C by immobilising SMYD3 with EDC and NHS (Xantec) using an injection time of 420 s and a flow rate of 10 μL min^−1. The immobilisation levels ranged from 5000 pg mm^−2 to 18 500 pg mm^−2 surface mass to enable analysis of fragments spanning a broad range of affinities. After immobilization, the surface was deactivated with a running buffer containing 50 mM Tris for 420 s. The GCI data referencing and analysis were performed using WAVEcontrol V4.5 (Creoptix AG).
Kinetic measurements with controls and fragments were performed at 15 °C. Analysis of controls and follow up of hits was done using the multi cycle kinetic (MCK) injection of a concentration series for the same time, with a two-fold serial dilution starting at 250 μM for each compound. Solvent correction was performed ranging from 0.5–1.8% DMSO. Blank samples of the running buffer, 1× TBS (50 mM Tris, 150 mM NaCl, 0.5 mM TCEP, 0.05% Tween 20, 1% DMSO, pH 8), were injected during the measurements every fifth cycle. The experimental design illustrated in Fig. 1 was used for the screening against all four surfaces. The sensorgrams were adjusted to account for solvent correction and blank subtraction. Kinetic fitting was performed with the Direct Kinetics engine of WAVEcontrol software V4.5 (Creoptix AG) with a suitable fitting model.

The structures appear in SMILES notation. Several values for one entry are separate records, joined by “and”; a condition that tells them apart may be missing. Equal entries are not always repeated.

For orientation: Kd means the free concentration of one partner at which half of the binding sites on the other are occupied at equilibrium, for simple one-to-one binding. For `Cn1cnc(S(N)(=O)=O)c1` [FL06268], in assay [1] (5 mM fragment co-crystallization or soaking), the “XRC: success or failure of crystallization in complex with SMYD3” value is “(+)”. Also, the “Site (binding site in SMYD3 crystal structure)” value in assay [1] (four sites defined (1–4, Fig. 6) plus active site) was “both the active site (green surface) and site 2 and 2 + active”. Moreover, the “LE (ligand efficiency)” value in assay [2] (LE = −RT ln(KD)/n, blocked SMYD3 surface) is reported as 0.63 (kcal^-1 mol^-1)/HA. In assay [2] (initial kinetic screening, fragment 250 μM, 15 °C, SMYD3 blocked by EPZ031686), this compound registered a Kd of 24 µM. Besides, the kd in assay [2] (initial kinetic screening, fragment 250 μM, 15 °C, SMYD3 blocked by EPZ031686, 1:1 model) came out at 0.83 s⁻¹. The kon at 250 µM in assay [2] (initial kinetic screening, fragment 250 μM, 15 °C, SMYD3 blocked by EPZ031686, 1:1 model, read-out: ka) worked out at 34100 M⁻¹ s⁻¹.

(Values after publication PMC11187542, “Identification of fragments targeting SMYD3 using highly sensitive kinetic and multiplexed biosensor-based screening” (RSC Medicinal Chemistry, 2024).)
